Two molecules from US20020091107A1 (published 2002) can be followed below.

Each structure is given as a SMILES string.

The melting point is the temperature, or range, at which the solid turns liquid. `CC(=O)NC[C@H]1CN(c2ccc(/C=C3\C(=O)N(c4ccccc4)N=C3C(C)(C)C)cc2)C(=O)O1` registered a melting point of 70 °C.

Regarding `CC(=O)NC[C@H]1CN(c2ccc(/C=C3/C(=O)N(C)c4ccccc43)cc2)C(=O)O1`, the melting point fell in the range of 193 to 195 °C.
